Test system: NLPR3 inflammasome, LPS activated monocytes
Assay: IL-1β production by LPS activated monocytes
Assay type: cell-based, human
Conditions: with anti-IL-10 receptor antibody
Description: CD14^+ monocytes were isolated from PBMC using a pan monocyte isolation kit (Miltenyi Biotec, Bergisch Gladbach, Germany) and plated in 96 flat microtiter wells at 2×10^5/200 μL per well and cultured in the presence of LPS. The cells were cultured further in the presence of Z-YVADfmk (20 μM), MMC950 (10 μM), IL-10 (10 ng/ml) or various concentrations of single- or pooled donor […] cell supernatants as summarized in Table 1.
The supernatants were obtained from single- or pooled donor CD4^IL-10 cells activated for 72 hours with a combination of CD3 and CD28 antibodies as described previously. (Andolfi et al. 2012, Mol. Therapy Vol. 20, 1778-1790, Locafaro et al. Mol Ther 2017, 25, 2254) In some cases (FIGS. 35C and 35D), the monocytes were incubated with LPS in combination with the NLPR3 inflammasome activator nigericin (“NIG”) which was added during the last 30 minutes of the LPS activation.

| Compound | effect of anti-IL-10 receptor antibody on the inhibition of IL-1β production |
| --- | --- |
| COC(=O)C[C@H](NC(=O)[C@H](C)NC(=O)[C@@H](NC(=O)[C@H](Cc1ccc(O)cc1)NC(=O)OCc1ccccc1)C(C)C)C(=O)CF [Z-YVADfmk] | no effect |
| CC(C)(O)c1coc(S(=O)(=O)NC(=O)Nc2c3c(cc4c2CCC4)CCC3)c1 [MCC950] | no effect |
